Among the test systems are MCF7; Malme-3M; MDA-MB-435; SR; NCI-H460; M14; SNB-19; Hs-578T; ACHN; T47D; HCT-15; DU-145; KM12; UACC-62; OVCAR-8; OVCAR-3; TK-10; HT-29; CAKI-1.
What all share (experiment): NCI anticancer screen, dose series, 48 h

The values below come from ChEMBL document CHEMBL1201862, “PubChem BioAssay data set” (2004).

Molecules are shown by their SMILES.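 Values below derive from 48-hour exposures of cells grown in 96-well plates, with endpoints linearly interpolated between the two concentrations bracketing the appropriate inhibition level. Here, GI50 denotes the concentration required for 50% inhibition of growth.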 Calls of active or inactive are those of the source. Rule as the data show it: active = GI50 up to about 1.1 µM and inactive = higher.

As to `O=c1c2cc([N+](=O)[O-])cnc2sn1-c1ccc(Oc2ccccc2)cc1`, the GI50 in the assay with MCF7 was 35.3 µM (inactive); in the assay with Malme-3M it was 21.7 µM (inactive); with MDA-MB-435, 34 µM (inactive); in the assay on SR it was 49.2 µM (inactive); with NCI-H460, 74.1 µM (inactive); in the assay with M14 it was 53.8 µM (inactive). Moreover, the GI50 is 32.6 µM (inactive) in the assay with SNB-19; 18.6 µM (inactive) in the assay with Hs-578T; 53.1 µM (inactive) with ACHN; 10.8 µM (inactive) in the assay on T47D; over 100 µM in the assay on HCT-15; 24.8 µM (inactive) in the assay with DU-145. Also, the GI50 was 78.5 µM (inactive) with KM12; 41.7 µM (inactive) in the assay on UACC-62; 82.8 µM (inactive) in the assay on OVCAR-8; 36 µM (inactive) in the assay on OVCAR-3; > 100 µM (inactive) in the assay with TK-10; 62.5 µM (inactive) in the assay with HT-29.
On to `Cc1cc2c(cc1Cl)SC(NNC(=O)c1ccccc1)=NS2(=O)=O`, for which the GI50 with MCF7 was 2.21 µM (inactive); in the assay with Malme-3M, > 10 µM (inactive); with MDA-MB-435, > 10 µM (inactive); with NCI-H460 it was > 10 µM (inactive); in the assay with M14, > 10 µM (inactive); in the assay on SNB-19, > 10 µM (inactive). For the same compound, the GI50 with Hs-578T was > 10 µM (inactive); with ACHN it was > 10 µM (inactive); with CAKI-1, > 10 µM (inactive); in the assay on T47D it was > 10 µM (inactive); in the assay on HCT-15, over 10 µM; in the assay with DU-145, > 10 µM (inactive). Further, the GI50 in the assay with KM12, in the assay on UACC-62, with OVCAR-8, with OVCAR-3, with TK-10 and in the assay on HT-29 was > 10 µM (inactive) in each case.
For the compound `CC(=O)O[C@@H]1[C@H](C(C)C)[C@@H](OC(C)=O)C/C(C)=C/CC[C@]2(C)O[C@@H]12`, the GI50 with MCF7, in the assay on Malme-3M, in the assay with MDA-MB-435, in the assay with NCI-H460, with M14 and in the assay with SNB-19 was > 100 µM (inactive) in each case. Besides, the GI50 in the assay with Hs-578T is > 100 µM (inactive); in the assay with ACHN, > 100 µM (inactive); with CAKI-1, > 100 µM (inactive); with T47D, > 100 µM (inactive); in the assay with HCT-15, over 100 µM; in the assay on DU-145, > 100 µM (inactive). The GI50 in the assay on KM12, in the assay with UACC-62, in the assay on OVCAR-8, in the assay with OVCAR-3, in the assay on TK-10 and with HT-29 was > 100 µM (inactive) throughout.
Turning to `O=C1/C(=C/c2ccccc2)CCCC1CN1CCCCC1` (stereo not given), the GI50 with MCF7 is 0.428 µM (active); in the assay on Malme-3M, 1.82 µM (inactive); with MDA-MB-435, 2 µM (inactive); in the assay on NCI-H460, 6.58 µM (inactive); in the assay with M14, 1.89 µM (inactive); in the assay on SNB-19 it was 15.7 µM (inactive). Besides, the GI50 in the assay with Hs-578T is 2.94 µM (inactive); in the assay on ACHN it was 3.4 µM (inactive); with CAKI-1, 1.81 µM (inactive); with T47D it was 1.77 µM (inactive); with HCT-15, 2.04 µM; with DU-145, 14.3 µM (inactive). Moreover, the GI50 in the assay on KM12 was 1.19 µM (inactive); in the assay on UACC-62 it was 6.53 µM (inactive); with OVCAR-8 it was 2.09 µM (inactive); in the assay with OVCAR-3 it was 1.71 µM (inactive); with TK-10 it was 2.59 µM (inactive); in the assay on HT-29, 1.58 µM (inactive).
Regarding `CN(CCCNC(=O)c1nn(-c2ccc(Cl)cc2Cl)c2c1Cc1ccccc1-2)CCCNC(=O)c1nn(-c2ccc(Cl)cc2Cl)c2c1Cc1ccccc1-2`, the GI50 with MCF7 is 1.55 µM (inactive); in the assay on Malme-3M, 1.78 µM (inactive); in the assay with MDA-MB-435 it was 1.48 µM (inactive); in the assay on NCI-H460, 1.65 µM (inactive); with M14, 1.8 µM (inactive); in the assay on SNB-19, 1.77 µM (inactive). Besides, the GI50 is 2.74 µM (inactive) in the assay on Hs-578T; 1.67 µM (inactive) in the assay on ACHN; 1.55 µM (inactive) with CAKI-1; 1.92 µM (inactive) in the assay on T47D; 1.84 µM with HCT-15; 1.77 µM (inactive) in the assay with DU-145. Also, the GI50 in the assay on KM12 was 2.37 µM (inactive); with UACC-62, 1.57 µM (inactive); in the assay on OVCAR-8, 1.81 µM (inactive); in the assay on OVCAR-3 it was 1.73 µM (inactive); in the assay with TK-10 it was 1.73 µM (inactive); in the assay on HT-29, 1.73 µM (inactive).
Regarding `O=c1ss/c(=N\c2ccccc2)n1-c1ccccc1`, the GI50 in the assay with MCF7 is 19.5 µM (inactive); in the assay on Malme-3M, > 100 µM (inactive); in the assay on MDA-MB-435, 31.9 µM (inactive); in the assay with SR, 17.3 µM (inactive); in the assay with NCI-H460, 81.7 µM (inactive); in the assay with M14, 19 µM (inactive). Moreover, the GI50 in the assay with SNB-19 is 62.5 µM (inactive); with Hs-578T, 32.4 µM (inactive); in the assay on ACHN it was 17.1 µM (inactive); with T47D it was 16.3 µM (inactive); with HCT-15, 17.8 µM; in the assay on DU-145 it was 16.9 µM (inactive). Moreover, the GI50 in the assay on KM12 is 30.8 µM (inactive); in the assay on UACC-62, 31.1 µM (inactive); with OVCAR-8, 16.8 µM (inactive); in the assay with OVCAR-3 it was 22.3 µM (inactive); with TK-10, 50.6 µM (inactive); in the assay on HT-29, 38.5 µM (inactive).
In the case of `COc1ccc(-c2cc(-c3ccc(Cl)cc3)n(C3OC(CO)C(O)C(O)C3O)c(=S)c2C#N)cc1` (stereo not given), the GI50 with MCF7 was > 10 µM (inactive); with MDA-MB-435, 75.5 µM (inactive); in the assay with SR, 42.9 µM (inactive); in the assay with NCI-H460 it was 13 µM (inactive); in the assay with M14, 30 µM (inactive); in the assay on SNB-19, > 100 µM (inactive). Also, the GI50 was > 100 µM (inactive) in the assay with Hs-578T; > 100 µM (inactive) in the assay with ACHN; 29.2 µM (inactive) with T47D; 38.5 µM with HCT-15; 4.04 µM (inactive) in the assay on DU-145; 49.9 µM (inactive) in the assay on KM12. Moreover, the GI50 in the assay on UACC-62 was > 100 µM (inactive); in the assay on OVCAR-8 it was 21 µM (inactive); in the assay on TK-10 it was 30.3 µM (inactive); with HT-29, 24.2 µM (inactive).
Turning to `Cc1noc(-c2ccc(C(=O)O)[nH]2)c1Br`, the GI50 in the assay on MCF7 is 50.1 µM (inactive); with Malme-3M, 69.8 µM (inactive); in the assay with MDA-MB-435, > 100 µM (inactive); with NCI-H460, > 100 µM (inactive); in the assay with M14 it was > 100 µM (inactive); in the assay with SNB-19, 37.4 µM (inactive). The GI50 in the assay with Hs-578T is 42.3 µM (inactive); with ACHN it was 38.3 µM (inactive); with CAKI-1, 34.2 µM (inactive); in the assay with T47D, 17.3 µM (inactive); in the assay on HCT-15 it was over 100 µM; with DU-145, 37.9 µM (inactive). Moreover, the GI50 is > 100 µM (inactive) with KM12; 64.6 µM (inactive) with UACC-62; 15.8 µM (inactive) with OVCAR-8; 23.4 µM (inactive) in the assay with OVCAR-3; 31.5 µM (inactive) in the assay on TK-10; > 100 µM (inactive) with HT-29.
Turning to `C=CCN(C(=O)CNC(=O)C(F)(F)F)c1cc(OCc2ccccc2)c2c(c1)c(C)cn2S(=O)(=O)c1ccccc1`, the GI50 is 7.57 µM (inactive) with MCF7; > 100 µM (inactive) with Malme-3M; 40.6 µM (inactive) in the assay on MDA-MB-435; > 30.5 µM (inactive) in the assay with NCI-H460; > 100 µM (inactive) with M14; > 100 µM (inactive) with SNB-19. The GI50 in the assay with Hs-578T is > 100 µM (inactive); with ACHN it was > 26 µM (inactive); in the assay on CAKI-1, > 31 µM (inactive); with T47D, 5.93 µM (inactive); in the assay on HCT-15, over 100 µM; in the assay with DU-145, > 100 µM (inactive). Besides, the GI50 in the assay with KM12 was 17.6 µM (inactive); in the assay with UACC-62 it was 6.76 µM (inactive); in the assay on OVCAR-8, > 26.8 µM (inactive); in the assay on OVCAR-3, > 49.5 µM (inactive); with TK-10, > 100 µM (inactive); with HT-29, > 100 µM (inactive).
As for `COc1ccc(C(=C(Cl)c2ccccc2)c2ccc(OC)cc2)cc1`, the GI50 in the assay with MCF7, in the assay on Malme-3M, with MDA-MB-435, with NCI-H460, in the assay with M14 and in the assay on SNB-19 was > 100 µM (inactive) each time. Moreover, the GI50 was > 100 µM (inactive) in the assay with Hs-578T; > 100 µM (inactive) in the assay with ACHN; > 100 µM (inactive) in the assay with CAKI-1; 16.1 µM (inactive) in the assay on T47D; over 100 µM in the assay on HCT-15; > 100 µM (inactive) in the assay on DU-145. In addition, the GI50 in the assay with KM12 was > 100 µM (inactive); with UACC-62, > 100 µM (inactive); in the assay on OVCAR-8, > 100 µM (inactive); with OVCAR-3, > 100 µM (inactive); in the assay on TK-10, > 100 µM (inactive); with HT-29 it was 11.9 µM (inactive).
Turning to `COc1cc(O)c(C(C)=O)c(O)c1`, the GI50 in the assay with MCF7 was 37.5 µM (inactive); in the assay with Malme-3M, > 100 µM (inactive); with MDA-MB-435 it was 82.6 µM (inactive); in the assay on SR it was 36.3 µM (inactive); with NCI-H460, 88.1 µM (inactive); in the assay with M14 it was 86.9 µM (inactive). Also, the GI50 is 62.7 µM (inactive) in the assay with Hs-578T; 42.7 µM (inactive) in the assay on ACHN; 25.6 µM (inactive) in the assay with T47D; 76.7 µM in the assay with HCT-15; 64.9 µM (inactive) with DU-145; > 100 µM (inactive) with KM12. In addition, the GI50 in the assay on UACC-62 is 46.1 µM (inactive); with OVCAR-8, 55.2 µM (inactive); with OVCAR-3 it was > 100 µM (inactive); in the assay with TK-10, > 100 µM (inactive); with HT-29 it was > 100 µM (inactive).
